Assay results as given in ChEMBL document CHEMBL4002623, “Synthesis and in vitro activity of dicationic indolyl diphenyl ethers as novel potent antibiotic agents against drug-resistant bacteria” (Bioorg Med Chem Lett, 2017).
In brackets after ≈: the same amount, converted by molar mass.

Tests used:
Salmonella typhi = test: Antibacterial activity against Salmonella typhi H901 by agar dilution method; assay type: functional, Salmonella enterica subsp. enterica serovar Typhi; conditions: Salmonella enterica
Klebsiella aerogenes = test: Antibacterial activity against Enterobacter aerogenes 45102 by agar dilution method; assay type: functional
Enterococcus faecalis [1] = test: Antibacterial activity against vancomycin-sensitive Enterococcus faecalis 09-8 by agar dilution method; assay type: functional
Pseudomonas aeruginosa [2] = test: Antibacterial activity against Pseudomonas aeruginosa PAO1 by agar dilution method; assay type: functional
[3] = tested on: Staphylococcus epidermidis; test: Antibacterial activity against methicillin-sensitive Staphylococcus epidermidis 09-9 by agar dilution method; assay type: functional
Serratia marcescens = test: Antibacterial activity against Serratia marcescens 41002 by agar dilution method; assay type: functional
Enterococcus faecalis [4] = test: Antibacterial activity against vancomycin-sensitive Enterococcus faecalis ATCC 29212 by agar dilution method; assay type: functional
Enterococcus faecium [5] = test: Antibacterial activity against vancomycin-resistant Enterococcus faecium ATCC 700221 by agar dilution method; assay type: functional
Enterobacter cloacae = test: Antibacterial activity against Enterobacter cloacae 45301 by agar dilution method; assay type: functional
Escherichia coli [6] = test: Antibacterial activity against extended-spectrum beta-lactamase-negative Escherichia coli 1515 by agar dilution method; assay type: functional
Klebsiella pneumoniae [7] = test: Antibacterial activity against extended-spectrum beta-lactamase-positive Klebsiella pneumoniae 09-25 by agar dilution method; assay type: functional
Klebsiella pneumoniae [8] = test: Antibacterial activity against extended-spectrum beta-lactamase-negative Klebsiella pneumoniae 09-8 by agar dilution method; assay type: functional
Staphylococcus aureus [9] = test: Antibacterial activity against methicillin-sensitive Staphylococcus aureus 15 by agar dilution method; assay type: functional
Proteus vulgaris = test: Antibacterial activity against Proteus vulgaris ATCC 29905 by agar dilution method; assay type: functional
Proteus mirabilis = test: Antibacterial activity against Proteus mirabilis 09-1 by agar dilution method; assay type: functional
Enterococcus faecium [10] = test: Antibacterial activity against vancomycin-sensitive Enterococcus faecium 09-10 by agar dilution method; assay type: functional
Enterococcus faecium [11] = test: Antibacterial activity against vancomycin-resistant Enterococcus faecium 05-8 by agar dilution method; assay type: functional
Morganella morganii = test: Antibacterial activity against Morganella morganii ATCC 25830 by agar dilution method; assay type: functional
Staphylococcus aureus [12] = test: Antibacterial activity against methicillin-resistant Staphylococcus aureus 09-13 by agar dilution method; assay type: functional
Escherichia coli [13] = test: Antibacterial activity against extended-spectrum beta-lactamase-negative Escherichia coli ATCC 25922 by agar dilution method; assay type: functional
[14] = tested on: Acinetobacter calcoaceticus; test: Antibacterial activity against Acinetobacter calcoaceticus ATCC 19606 by agar dilution method; assay type: functional
Escherichia coli [15] = test: Antibacterial activity against extended-spectrum beta-lactamase-positive Escherichia coli 09-1 by agar dilution method; assay type: functional
[16] = Cytotoxicity against HEK293T cells after 48 hrs by MTS assay; assay type: cell-based, HEK-293T; conditions: human
Klebsiella pneumoniae [17] = test: Antibacterial activity against extended-spectrum beta-lactamase-negative Klebsiella pneumoniae 7 by agar dilution method; assay type: functional
Pseudomonas aeruginosa [18] = test: Antibacterial activity against Pseudomonas aeruginosa ATCC 27853 by agar dilution method; assay type: functional
Providencia rettgeri = test: Antibacterial activity against Providencia rettgeri ATCC 31052 by agar dilution method; assay type: functional
Klebsiella pneumoniae [19] = test: Antibacterial activity against extended-spectrum beta-lactamase-positive Klebsiella pneumoniae ATCC 700603 by agar dilution method; assay type: functional
Escherichia coli [20] = test: Antibacterial activity against extended-spectrum beta-lactamase-negative Escherichia coli 09-20 by agar dilution method; assay type: functional
Staphylococcus aureus [21] = test: Antibacterial activity against methicillin-resistant Staphylococcus aureus ATCC 33591 by agar dilution method; assay type: functional
Enterococcus faecalis [22] = test: Antibacterial activity against vancomycin-resistant Enterococcus faecalis ATCC 51299 by agar dilution method; assay type: functional
Pseudomonas aeruginosa [23] = test: Antibacterial activity against Pseudomonas aeruginosa 09-14 by agar dilution method; assay type: functional
Enterococcus faecalis [24] = test: Antibacterial activity against vancomycin-resistant Enterococcus faecalis 09-9 by agar dilution method; assay type: functional
[25] = tested on: Staphylococcus epidermidis; test: Antibacterial activity against methicillin-sensitive Staphylococcus epidermidis ATCC 12228 by agar dilution method; assay type: functional
Staphylococcus aureus [26] = test: Antibacterial activity against methicillin-sensitive Staphylococcus aureus 09-6 by agar dilution method; assay type: functional
[27] = tested on: Staphylococcus epidermidis; test: Antibacterial activity against methicillin-resistant Staphylococcus epidermidis 09-3 by agar dilution method; assay type: functional
Klebsiella pneumoniae [28] = test: Antibacterial activity against Klebsiella pneumoniae ATCC BAA-2146 expressing NDM-1 by agar dilution method; assay type: functional
Citrobacter freundii = test: Antibacterial activity against Citrobacter freundii ATCC 43864 by agar dilution method; assay type: functional
Staphylococcus aureus [29] = test: Antibacterial activity against methicillin-sensitive Staphylococcus aureus ATCC 29213 by agar dilution method; assay type: functional

| Compound | MIC (Salmonella typhi) [µg/mL] | MIC (Klebsiella aerogenes) [µg/mL] | MIC (Enterococcus faecalis [1]) [µg/mL] | MIC (Pseudomonas aeruginosa [2]) [µg/mL] | MIC [3] [µg/mL] | MIC (Serratia marcescens) [µg/mL] | MIC (Enterococcus faecalis [4]) [µg/mL] | MIC (Enterococcus faecium [5]) [µg/mL] | MIC (Enterobacter cloacae) [µg/mL] | MIC (Escherichia coli [6]) [µg/mL] | MIC (Klebsiella pneumoniae [7]) [µg/mL] | MIC (Klebsiella pneumoniae [8]) [µg/mL] | MIC (Staphylococcus aureus [9]) [µg/mL] | MIC (Proteus vulgaris) [µg/mL] | MIC (Proteus mirabilis) [µg/mL] | MIC (Enterococcus faecium [10]) [µg/mL] | MIC (Enterococcus faecium [11]) [µg/mL] | MIC (Morganella morganii) [µg/mL] | MIC (Staphylococcus aureus [12]) [µg/mL] | MIC (Escherichia coli [13]) [µg/mL] | also measured |
| --- | --- | --- | --- | --- | --- | --- | --- | --- | --- | --- | --- | --- | --- | --- | --- | --- | --- | --- | --- | --- | --- |
| N=C(c1ccc2cc(-c3ccc(Oc4ccc(-c5cc6ccc(C(=N)N7CCCCC7)cc6[nH]5)cc4)cc3)[nH]c2c1)N1CCCCC1 | > 128 | > 128 | 32 (≈ 51.5 µM) | > 128 | 8 (≈ 12.9 µM) | > 128 | 32 (≈ 51.5 µM) | 16 to 32 (≈ 25.8 to 51.5 µM) | > 128 | > 128 | > 128 | > 128 | 16 (≈ 25.8 µM) | > 128 | > 128 | 16 to 32 (≈ 25.8 to 51.5 µM) | 32 (≈ 51.5 µM) | > 128 | 16 (≈ 25.8 µM) | > 128 | MIC [14]: > 128 µg/mL; MIC (Escherichia coli [15]): > 128 µg/mL; CC50 at 48 h [16]: 2.5 µg/mL (≈ 4.03 µM); MIC (Klebsiella pneumoniae [17]): > 128 µg/mL; MIC (Pseudomonas aeruginosa [18]): > 128 µg/mL; MIC (Providencia rettgeri): > 128 µg/mL; MIC (Klebsiella pneumoniae [19]): > 128 µg/mL; MIC (Escherichia coli [20]): > 128 µg/mL; MIC (Staphylococcus aureus [21]): 16 µg/mL (≈ 25.8 µM); MIC (Enterococcus faecalis [22]): 64 µg/mL (≈ 103 µM); MIC (Pseudomonas aeruginosa [23]): > 128 µg/mL; MIC (Enterococcus faecalis [24]): 32 µg/mL (≈ 51.5 µM); MIC [25]: 8 µg/mL (≈ 12.9 µM); MIC (Staphylococcus aureus [26]): 16 µg/mL (≈ 25.8 µM); MIC [27]: 8 µg/mL (≈ 12.9 µM); MIC (Klebsiella pneumoniae [28]): > 128 µg/mL; MIC (Citrobacter freundii): > 128 µg/mL; MIC (Staphylococcus aureus [29]): 16 µg/mL (≈ 25.8 µM) |
| N=C(NC1CCCCC1)c1ccc2cc(-c3ccc(Oc4ccc(-c5cc6ccc(C(=N)NC7CCCCC7)cc6[nH]5)cc4)cc3)[nH]c2c1 | 64 (≈ 98.6 µM) | 128 (≈ 197 µM) | 4 (≈ 6.16 µM) | > 128 | 2 (≈ 3.08 µM) | 128 (≈ 197 µM) | 4 (≈ 6.16 µM) | 2 (≈ 3.08 µM) | 128 (≈ 197 µM) | 128 (≈ 197 µM) | 128 (≈ 197 µM) | 128 (≈ 197 µM) | 2 (≈ 3.08 µM) | 128 (≈ 197 µM) | > 128 | 8 (≈ 12.3 µM) | 4 (≈ 6.16 µM) | 64 (≈ 98.6 µM) | 2 (≈ 3.08 µM) | 64 (≈ 98.6 µM) | MIC [14]: 64 µg/mL (≈ 98.6 µM); MIC (Escherichia coli [15]): 128 µg/mL (≈ 197 µM); CC50 at 48 h [16]: 59.2 µg/mL (≈ 91.2 µM); MIC (Klebsiella pneumoniae [17]): 128 µg/mL (≈ 197 µM); MIC (Pseudomonas aeruginosa [18]): > 128 µg/mL; MIC (Providencia rettgeri): > 128 µg/mL; MIC (Klebsiella pneumoniae [19]): > 128 µg/mL; MIC (Escherichia coli [20]): 128 µg/mL (≈ 197 µM); MIC (Staphylococcus aureus [21]): 2 µg/mL (≈ 3.08 µM); MIC (Enterococcus faecalis [22]): 4 µg/mL (≈ 6.16 µM); MIC (Pseudomonas aeruginosa [23]): > 128 µg/mL; MIC (Enterococcus faecalis [24]): 8 µg/mL (≈ 12.3 µM); MIC [25]: 1 µg/mL (≈ 1.54 µM); MIC (Staphylococcus aureus [26]): 4 µg/mL (≈ 6.16 µM); MIC [27]: 2 µg/mL (≈ 3.08 µM); MIC (Klebsiella pneumoniae [28]): 128 µg/mL (≈ 197 µM); MIC (Citrobacter freundii): 128 µg/mL (≈ 197 µM); MIC (Staphylococcus aureus [29]): 4 µg/mL (≈ 6.16 µM) |
